# Results reported in ChEMBL document CHEMBL5465560, “Selectivity Literature for EUbOPEN Chemogenomic Library” (2024).
# What was measured:
# [1] = target: T1, Mitogen-activated protein kinase kinase kinase 13 (Homo sapiens) (UniProt O43283); experiment: Selectivity interaction (KinomeScan (DiscoverX)) EUB0000666a MAP3K13; details: at 10 µM
# T1 sequence (whole entry): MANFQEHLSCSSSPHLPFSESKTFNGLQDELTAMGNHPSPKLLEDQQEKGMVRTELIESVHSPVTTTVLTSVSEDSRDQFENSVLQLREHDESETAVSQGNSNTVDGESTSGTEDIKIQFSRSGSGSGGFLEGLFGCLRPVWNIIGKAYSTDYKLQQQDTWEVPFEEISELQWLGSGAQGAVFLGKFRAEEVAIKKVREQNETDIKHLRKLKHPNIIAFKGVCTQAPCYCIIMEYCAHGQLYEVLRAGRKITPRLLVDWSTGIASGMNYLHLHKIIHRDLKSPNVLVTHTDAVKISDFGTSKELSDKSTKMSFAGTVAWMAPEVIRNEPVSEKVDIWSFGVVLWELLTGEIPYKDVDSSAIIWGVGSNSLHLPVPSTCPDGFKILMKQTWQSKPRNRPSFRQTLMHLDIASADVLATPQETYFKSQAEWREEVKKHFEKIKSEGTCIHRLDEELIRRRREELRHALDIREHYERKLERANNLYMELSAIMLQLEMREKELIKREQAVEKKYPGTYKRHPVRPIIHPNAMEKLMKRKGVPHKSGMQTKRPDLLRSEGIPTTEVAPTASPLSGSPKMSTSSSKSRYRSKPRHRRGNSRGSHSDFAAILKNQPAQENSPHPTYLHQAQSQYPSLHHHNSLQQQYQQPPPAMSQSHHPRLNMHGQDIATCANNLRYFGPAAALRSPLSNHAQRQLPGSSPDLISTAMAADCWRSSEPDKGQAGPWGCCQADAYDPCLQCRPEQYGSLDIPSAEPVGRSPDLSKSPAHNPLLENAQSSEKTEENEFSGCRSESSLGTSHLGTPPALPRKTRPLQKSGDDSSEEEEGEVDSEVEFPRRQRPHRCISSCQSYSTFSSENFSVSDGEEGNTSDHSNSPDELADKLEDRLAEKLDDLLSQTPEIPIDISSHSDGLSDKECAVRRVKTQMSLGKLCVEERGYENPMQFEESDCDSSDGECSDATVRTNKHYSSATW
# [2] = test system: ALK tyrosine kinase receptor (Homo sapiens), Q9UM73 [L1196M]; experiment: (§1) Selectivity interaction (KinomeScan (DiscoverX)) EUB0000229b ALK; details: at 1 µM
# Sequence of ALK tyrosine kinase receptor (Homo sapiens), Q9UM73 [L1196M] (Q9UM73 whole entry L1196M, looked up): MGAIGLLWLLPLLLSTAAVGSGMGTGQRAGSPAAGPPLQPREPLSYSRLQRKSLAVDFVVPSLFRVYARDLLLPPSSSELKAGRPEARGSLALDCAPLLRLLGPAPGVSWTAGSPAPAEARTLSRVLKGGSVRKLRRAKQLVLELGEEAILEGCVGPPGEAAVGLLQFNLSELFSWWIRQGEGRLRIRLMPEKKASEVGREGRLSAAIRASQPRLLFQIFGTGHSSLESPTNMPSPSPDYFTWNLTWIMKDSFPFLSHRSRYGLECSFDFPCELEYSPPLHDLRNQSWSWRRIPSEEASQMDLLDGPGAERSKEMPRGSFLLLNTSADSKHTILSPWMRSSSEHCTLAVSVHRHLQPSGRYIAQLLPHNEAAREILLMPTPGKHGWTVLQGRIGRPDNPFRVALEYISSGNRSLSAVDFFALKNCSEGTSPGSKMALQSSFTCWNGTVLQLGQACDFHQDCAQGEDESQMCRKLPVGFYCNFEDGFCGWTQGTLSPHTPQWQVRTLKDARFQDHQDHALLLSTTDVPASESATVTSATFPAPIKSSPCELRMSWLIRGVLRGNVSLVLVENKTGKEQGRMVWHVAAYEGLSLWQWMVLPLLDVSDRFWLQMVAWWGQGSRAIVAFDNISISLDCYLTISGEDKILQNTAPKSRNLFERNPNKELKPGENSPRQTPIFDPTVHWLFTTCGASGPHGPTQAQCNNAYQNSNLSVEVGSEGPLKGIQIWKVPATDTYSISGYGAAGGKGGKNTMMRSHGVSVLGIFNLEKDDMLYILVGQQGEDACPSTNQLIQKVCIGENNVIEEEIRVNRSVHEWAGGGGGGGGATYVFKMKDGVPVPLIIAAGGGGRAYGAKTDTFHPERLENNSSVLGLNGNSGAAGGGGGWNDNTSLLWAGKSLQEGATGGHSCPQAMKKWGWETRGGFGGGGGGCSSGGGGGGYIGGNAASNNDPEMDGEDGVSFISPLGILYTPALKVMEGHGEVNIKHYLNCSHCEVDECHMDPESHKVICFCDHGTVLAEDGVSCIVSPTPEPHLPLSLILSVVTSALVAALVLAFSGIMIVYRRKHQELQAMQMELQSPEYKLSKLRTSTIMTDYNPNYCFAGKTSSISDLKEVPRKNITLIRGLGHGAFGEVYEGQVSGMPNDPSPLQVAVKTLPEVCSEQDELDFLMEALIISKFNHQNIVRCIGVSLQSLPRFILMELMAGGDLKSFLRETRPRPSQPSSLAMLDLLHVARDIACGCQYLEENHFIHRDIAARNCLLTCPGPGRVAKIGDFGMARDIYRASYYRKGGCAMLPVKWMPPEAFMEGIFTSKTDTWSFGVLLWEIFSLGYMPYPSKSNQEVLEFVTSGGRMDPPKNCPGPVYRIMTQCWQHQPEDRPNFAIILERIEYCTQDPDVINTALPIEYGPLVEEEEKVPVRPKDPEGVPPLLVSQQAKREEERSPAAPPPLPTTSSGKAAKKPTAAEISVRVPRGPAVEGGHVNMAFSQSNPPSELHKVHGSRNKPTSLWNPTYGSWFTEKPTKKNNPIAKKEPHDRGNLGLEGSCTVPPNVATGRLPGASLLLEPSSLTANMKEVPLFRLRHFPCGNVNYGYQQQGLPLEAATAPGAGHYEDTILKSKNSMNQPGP
# [3] = test system: ALK tyrosine kinase receptor (Homo sapiens), Q9UM73 [C1156Y]; experiment: as §1; details: at 1 µM
# Sequence of ALK tyrosine kinase receptor (Homo sapiens), Q9UM73 [C1156Y] (Q9UM73 whole entry C1156Y, looked up): as the sequence (Q9UM73 whole entry L1196M, looked up) above, with C1156Y, M1196L counted along it
# [4] = target: 5-hydroxytryptamine receptor 3A (Homo sapiens, UniProt P46098); experiment: Selectivity interaction (Serotonin 5HT3 receptor assay, human recombinant ) EUB0000877a HTR3A
# Sequence of 5-hydroxytryptamine receptor 3A (P46098 whole entry): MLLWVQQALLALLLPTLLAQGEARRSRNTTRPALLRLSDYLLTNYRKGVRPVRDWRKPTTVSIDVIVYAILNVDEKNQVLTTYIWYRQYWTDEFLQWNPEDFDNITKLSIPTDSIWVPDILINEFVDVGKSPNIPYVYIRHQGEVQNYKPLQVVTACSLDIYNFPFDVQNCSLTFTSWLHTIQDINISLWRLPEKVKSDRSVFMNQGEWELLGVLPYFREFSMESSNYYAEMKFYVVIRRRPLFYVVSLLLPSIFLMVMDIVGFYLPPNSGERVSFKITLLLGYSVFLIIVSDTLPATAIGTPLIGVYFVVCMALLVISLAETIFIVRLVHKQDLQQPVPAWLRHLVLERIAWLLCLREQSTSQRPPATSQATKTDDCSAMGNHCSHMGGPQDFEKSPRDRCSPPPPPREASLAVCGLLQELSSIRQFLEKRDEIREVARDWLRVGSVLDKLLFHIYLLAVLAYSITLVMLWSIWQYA
# [5] = target: Gastrin/cholecystokinin type B receptor (Homo sapiens, UniProt P32239); experiment: Selectivity interaction (Cholecystokinin B receptor binding assay, human recombinant ) EUB0000877a CCKBR
# Sequence of Gastrin/cholecystokinin type B receptor (P32239 whole entry): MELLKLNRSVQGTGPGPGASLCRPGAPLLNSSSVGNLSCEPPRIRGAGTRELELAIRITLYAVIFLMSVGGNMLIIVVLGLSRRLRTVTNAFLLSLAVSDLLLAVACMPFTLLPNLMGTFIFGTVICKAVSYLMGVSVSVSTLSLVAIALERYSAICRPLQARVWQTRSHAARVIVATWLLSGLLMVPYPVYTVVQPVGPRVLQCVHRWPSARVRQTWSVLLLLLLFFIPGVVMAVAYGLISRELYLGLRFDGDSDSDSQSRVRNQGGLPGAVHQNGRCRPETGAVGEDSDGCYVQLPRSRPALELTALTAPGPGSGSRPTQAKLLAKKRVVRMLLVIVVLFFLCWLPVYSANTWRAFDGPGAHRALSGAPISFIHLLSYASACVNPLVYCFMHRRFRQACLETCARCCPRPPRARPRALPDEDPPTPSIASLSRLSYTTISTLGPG
# [6] = target: T2, Serine/threonine-protein kinase MAK (Homo sapiens) (UniProt P20794); experiment: Selectivity interaction (KinomeScan (DiscoverX)) EUB0000045b MAK
# T2 sequence (whole entry): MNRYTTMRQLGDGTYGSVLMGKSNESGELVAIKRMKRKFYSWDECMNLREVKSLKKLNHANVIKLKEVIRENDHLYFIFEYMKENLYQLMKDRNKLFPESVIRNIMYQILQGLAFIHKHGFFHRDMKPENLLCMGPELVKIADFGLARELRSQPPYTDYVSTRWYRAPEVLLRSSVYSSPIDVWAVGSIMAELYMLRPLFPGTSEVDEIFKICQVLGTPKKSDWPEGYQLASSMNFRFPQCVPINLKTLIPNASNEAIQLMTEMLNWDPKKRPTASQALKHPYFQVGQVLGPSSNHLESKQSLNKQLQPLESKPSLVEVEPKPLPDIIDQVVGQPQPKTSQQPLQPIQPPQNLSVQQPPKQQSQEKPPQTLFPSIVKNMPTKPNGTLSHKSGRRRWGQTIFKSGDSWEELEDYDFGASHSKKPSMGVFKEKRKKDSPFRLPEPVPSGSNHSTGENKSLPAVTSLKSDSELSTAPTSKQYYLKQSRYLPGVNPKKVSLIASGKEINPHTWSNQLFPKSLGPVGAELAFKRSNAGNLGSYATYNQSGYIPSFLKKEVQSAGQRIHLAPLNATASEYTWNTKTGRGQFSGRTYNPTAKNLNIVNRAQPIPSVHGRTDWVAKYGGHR
# [7] = target: T3, Dual specificity mitogen-activated protein kinase kinase 4 (Homo sapiens) (UniProt P45985); experiment: Selectivity interaction (ProQinase) EUB0000171b MAP2K4
# T3 sequence (whole entry): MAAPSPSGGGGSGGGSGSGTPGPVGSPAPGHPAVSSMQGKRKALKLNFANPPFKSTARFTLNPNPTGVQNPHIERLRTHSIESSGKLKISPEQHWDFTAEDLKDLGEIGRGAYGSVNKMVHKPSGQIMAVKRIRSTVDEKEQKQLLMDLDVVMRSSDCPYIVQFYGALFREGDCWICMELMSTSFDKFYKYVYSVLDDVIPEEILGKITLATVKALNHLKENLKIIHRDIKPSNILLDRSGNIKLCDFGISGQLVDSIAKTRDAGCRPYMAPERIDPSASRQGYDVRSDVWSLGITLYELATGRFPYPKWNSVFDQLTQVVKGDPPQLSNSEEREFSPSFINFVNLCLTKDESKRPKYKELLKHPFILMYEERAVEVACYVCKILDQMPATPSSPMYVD
# [8] = target: 5'-AMP-activated protein kinase catalytic subunit alpha-1 (Homo sapiens, UniProt Q13131); experiment: Selectivity interaction (ProQinase) EUB0000171b PRKAA1
# Sequence of 5'-AMP-activated protein kinase catalytic subunit alpha-1 (Q13131 whole entry, looked up): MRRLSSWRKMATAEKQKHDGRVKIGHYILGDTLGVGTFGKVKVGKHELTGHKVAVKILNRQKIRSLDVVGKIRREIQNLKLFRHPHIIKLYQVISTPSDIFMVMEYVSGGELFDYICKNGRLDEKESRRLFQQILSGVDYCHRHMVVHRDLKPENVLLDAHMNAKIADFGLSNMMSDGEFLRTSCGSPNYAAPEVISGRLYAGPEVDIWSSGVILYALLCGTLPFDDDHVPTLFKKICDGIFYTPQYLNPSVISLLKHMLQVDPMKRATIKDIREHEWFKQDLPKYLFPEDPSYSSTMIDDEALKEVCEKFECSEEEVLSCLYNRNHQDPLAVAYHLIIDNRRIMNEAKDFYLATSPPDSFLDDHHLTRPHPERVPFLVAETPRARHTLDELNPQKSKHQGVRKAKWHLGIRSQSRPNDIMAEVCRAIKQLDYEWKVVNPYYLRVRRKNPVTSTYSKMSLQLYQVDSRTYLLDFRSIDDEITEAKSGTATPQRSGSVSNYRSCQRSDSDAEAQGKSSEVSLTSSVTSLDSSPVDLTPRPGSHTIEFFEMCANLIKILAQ
structure (smiles),measurement,setting,value
O=C(NOC[C@H](O)CO)c1ccc(F)c(F)c1Nc1ccc(I)cc1F,% of control,[1],86%
COc1cc(N(C)c2ccnc3ccc(C(F)(F)F)cc23)cc(OC)c1OC,% binding,[2],89%
same,% binding,[3],83%
CCC(=O)N1CC[C@H](Nc2ncnc3c2CN(c2cnc(OC)c(C(F)(F)F)c2)CC3)C1 [LENIOLISIB],IC50,[4],> 30 µM
same,IC50,[5],> 30 µM
C=CC(=O)Nc1cc(-n2c(=O)ccc3cnc4ccc(-c5ccc(NS(C)(=O)=O)cc5)cc4c32)ccc1C,% of control,[6]; at 1 µM,70%
same,% of control,[6]; at 10 µM,100%
C=CC(=O)Nc1cccc(C(=O)Nc2ccc(Nc3cc(-c4[nH]c(SC)nc4C)ccn3)cc2)c1,% of control,[7]; at 1 µM,71%
same,% of control,[7]; at 5 µM,90%
same,% of control,[8]; at 1 µM,100%
same,% of control,[8]; at 5 µM,93%
